Tests used:
Phytophthora infestans [1] = type: in vivo, Phytophthora infestans (on tomato seedlings); conditions: 40 ppm; tomato late blight, curative (17 h after inoculation); rating 100 = 100% disease control, 0 = no disease control relative to the controls
Plasmopara viticola = assay: Test A: grape downy mildew, curative spray on inoculated grape seedlings, visual disease rating; type: in vivo, Plasmopara viticola (on grape seedlings); conditions: 40 ppm, rating 100 = 100% disease control, 0 = no disease control relative to the controls
Phytophthora infestans [2] = type: in vivo, Phytophthora infestans (on tomato seedlings); conditions: 40 ppm; tomato late blight, preventive; rating 100 = 100% disease control, 0 = no disease control relative to the controls

Row | Structure (SMILES) | Test B2 rating (disease control) (Phytophthora infestans [1]) | Test A rating (disease control) (Plasmopara viticola) | Test B1 rating (disease control) (Phytophthora infestans [2])
1 | Cc1cc(C(F)(F)F)nn1CC(=O)N1CCC(c2nc3c(s2)CCC(Cc2c(F)cccc2F)C3=O)CC1 (single isomer, unassigned) [Compound 5, 5-[(2,6-difluorophenyl)methyl]-6,7-dihydro-2-[1-[2-[5-methyl-3-(trifluoromethyl)-1H-pyrazol-1-yl]acetyl]-4-piperidinyl]-4(5H)-benzonthiazolone] | 99 | 99 | 100
2 | Cc1cc(C(F)(F)F)nn1CC(=O)N1CCC(c2nc3c(s2)CCC(Cc2c(F)cccc2F)C3=O)CC1 (single isomer, unassigned) [Compound 6, 5-[(2,6-difluorophenyl)methyl]-6,7-dihydro-2-[1-[2-[5-methyl-3-(trifluoromethylene)-1H-pyrazol-1-yl]acetyl]-4-piperidinyl]-4(5H)-benzothiazolone] | 78 | 78 | 100
3 | Cc1cc(C(F)(F)F)nn1CC(=O)N1CCC(c2nc3c(s2)CCN(Cc2ccccc2)C3=O)CC1 [Compound 8, 6,7-dihydro-2-[1-[2-[5-methyl-3-(trifluoromethyl)-1H-pyrazol-1-yl]acetyl]-4-piperidinyl]-5-(phenylmethyl)thiazolo[4,5-c]pyridin-4(5H)-one] | 99 | 100 | 100

From patent US20150336985A1, “FUNGICIDAL HETEROCYCLIC COMPOUNDS” (E. I. DU PONT DE NEMOURS AND COMPANY, priority 2012, published 2015)
